Here are results for 39 compounds from ChEMBL document CHEMBL1140816, “Syntheses of tetrahydrothiophenes and tetrahydrofurans and studies of their derivatives as melanocortin-4 receptor ligands” (Bioorg Med Chem Lett, 2008).

Assay [1] addresses T1, Melanocortin receptor 4 (Homo sapiens, UniProt P32245). Briefly: Displacement of [125I]NDP-MSH from human MC4R expressed in HEK293 cells. The class given is cell-based.
Assay [2] concerns the target T1, Melanocortin receptor 4. Kind of assay: Binding affinity at human MC4R.
Assay [3] addresses T1, Melanocortin receptor 4. Kind of assay: Antagonist activity at human MC4R assessed as inhibition of alpha MSH-stimulated cAMP release by cell based assay. The class given is functional.
For assay [4], the target named is T1, Melanocortin receptor 4. Briefly: Binding affinity at MC4R.
Assay [5] deals with T1, Melanocortin receptor 4. Briefly: Agonist activity at MC4R. The class given is functional.

T1 sequence (P32245 whole entry): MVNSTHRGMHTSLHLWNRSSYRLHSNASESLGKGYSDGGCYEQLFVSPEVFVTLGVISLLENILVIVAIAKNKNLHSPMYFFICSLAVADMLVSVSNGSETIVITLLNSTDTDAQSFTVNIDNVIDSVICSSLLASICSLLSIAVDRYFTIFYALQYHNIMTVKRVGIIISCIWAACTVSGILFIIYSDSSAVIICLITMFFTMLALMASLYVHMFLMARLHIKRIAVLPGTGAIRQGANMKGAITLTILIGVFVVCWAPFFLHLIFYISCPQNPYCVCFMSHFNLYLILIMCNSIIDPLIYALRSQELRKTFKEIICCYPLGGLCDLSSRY

Compound `CC(C)C[C@H](NC(=O)CCN(C)C)c1cc(C(F)(F)F)ccc1N1CCN(C(=O)[C@H]2CSC[C@@H]2c2ccc(Cl)cc2)CC1` displayed a Ki on Melanocortin receptor 4 [1] of 130 nM. Still for that read-out and setting: for `CNCC(=O)N[C@@H](CC(C)C)c1cc(C(F)(F)F)ccc1N1CCN(C(=O)[C@H]2CSC[C@@H]2c2ccc(Cl)cc2)CC1` the value was 250 nM. On Melanocortin receptor 4 [1], `CC(C)C[C@H](N)c1cc(C(F)(F)F)ccc1N1CCN(C(=O)[C@H]2CSC[C@@H]2c2ccc(Cl)cc2)CC1` gave a Ki of 280 nM. Compound `CC(C)C[C@H](N)c1cc(C(F)(F)F)ccc1N1CCN(C(=O)C(C)(C)Cc2ccc(Cl)cc2)CC1` came in with a Ki at Melanocortin receptor 4 [2] of 810 nM. In the case of `CC(C)C[C@H](NC(=O)CCN(C)C)c1cc(C(F)(F)F)ccc1N1CCN(C(=O)[C@H]2CS(=O)(=O)C[C@@H]2c2ccc(Cl)cc2)CC1`, the Ki on Melanocortin receptor 4 [1] is 170 nM. With `Cc1ccc(N2CCN(C(=O)[C@@H]3CCO[C@@H]3c3ccc(Cl)cc3)CC2)c([C@@H](NC(=O)CCN(C)C)C(C)C)c1`, at Melanocortin receptor 4 [1], the Ki was determined as 120 nM. Same read-out and setting: for `CC(C)C[C@H](N)c1cc(C(F)(F)F)ccc1N1CCN(C(=O)C2C(=O)OCC2c2ccc(Cl)cc2)CC1` (some centres not stated) the value was 260 nM; for `CC(C)C[C@H](NC(=O)CCN)c1cc(C(F)(F)F)ccc1N1CCN(C(=O)C2CC(=O)OC2c2ccc(Cl)cc2)CC1` (some centres not stated), 110 nM. For `CC(C)C[C@H](NC(=O)CCN)c1cc(C(F)(F)F)ccc1N1CCN(C(=O)C2C(=O)OCC2c2ccc(Cl)cc2)CC1` (some centres not stated), on Melanocortin receptor 4 [1], the Ki stood at 180 nM. At Melanocortin receptor 4 [1], `Cc1ccc(N2CCN(C(=O)[C@H]3OCC[C@@H]3c3ccc(Cl)cc3)CC2)c([C@@H](NC(=O)CCN(C)C)C(C)C)c1` had a Ki of 43 nM. With `CC(C)C[C@H](NC(=O)CCN(C)C)c1cc(C(F)(F)F)ccc1N1CCN(C(=O)[C@H]2C[S+]([O-])C[C@@H]2c2ccc(Cl)cc2)CC1` (some centres not stated), the Ki at Melanocortin receptor 4 [1] worked out at 230 nM.

On to `CC(C)C[C@H](N)c1cc(C(F)(F)F)ccc1N1CCN(C(=O)[C@H]2CCO[C@@H]2c2ccc(Cl)cc2)CC1`, for which, at Melanocortin receptor 4 [1], the Ki came to 330 nM.

In turn, `CC(C)C[C@H](N)c1cc(C(F)(F)F)ccc1N1CCN(C(=O)[C@H]2CS(=O)(=O)C[C@@H]2c2ccc(Cl)cc2)CC1` had a Ki at Melanocortin receptor 4 [1] of 38 nM. Moreover, the IC50 at Melanocortin receptor 4 [3] amounted to 690 nM. The compound `CNCCC(=O)N[C@@H](CC(C)C)c1cc(C(F)(F)F)ccc1N1CCN(C(=O)[C@H]2CSC[C@@H]2c2ccc(Cl)cc2)CC1` displayed a Ki on Melanocortin receptor 4 [1] of 170 nM. Compound `CC(C)[C@H](NC(=O)CCN(C)C)c1cccc(F)c1N1CCN(C(=O)[C@@H]2COC[C@@H]2c2ccc(Cl)cc2)CC1` came in with a Ki on Melanocortin receptor 4 [1] of 28 nM. `CNCC(=O)N[C@@H](CC(C)C)c1cc(C(F)(F)F)ccc1N1CCN(C(=O)[C@H]2CS(=O)(=O)C[C@@H]2c2ccc(Cl)cc2)CC1` had a Ki on Melanocortin receptor 4 [1] of 180 nM. Turning to `CNCCC(=O)N[C@@H](CC(C)C)c1cc(C(F)(F)F)ccc1N1CCN(C(=O)[C@H]2CS(=O)(=O)C[C@@H]2c2ccc(Cl)cc2)CC1`, the affinity at Melanocortin receptor 4 [1] corresponds to a Ki of 190 nM.

Consider `CC(C)(C)N1C[C@H](C(=O)N2CCC(CN3CCOC3=O)(C3CCCCC3)CC2)[C@@H](c2ccc(F)cc2F)C1`, for which the IC50 at Melanocortin receptor 4 [4] is 14 nM. The compound also came in with an EC50 on Melanocortin receptor 4 [5] of 2 nM. `Cc1ccc(N2CCN(C(=O)[C@@H]3OCC[C@@H]3c3ccc(Cl)cc3)CC2)c([C@@H](NC(=O)CCN(C)C)C(C)C)c1`: on Melanocortin receptor 4 [1], the Ki worked out at 10 nM. For the same compound, the IC50 at Melanocortin receptor 4 [3] was found to be 530 nM. As to `CC(C)[C@H](NC(=O)CCN(C)C)c1cccc(F)c1N1CCN(C(=O)C2COCC2c2ccc(Cl)cc2)CC1` (some centres not stated), the inhibition constant Ki at Melanocortin receptor 4 [1] was 40 nM. In the case of `CC(C)C[C@H](NC(=O)[C@@H](C)N)c1cc(C(F)(F)F)ccc1N1CCN(C(=O)[C@H]2CSC[C@@H]2c2ccc(Cl)cc2)CC1`, the Ki at Melanocortin receptor 4 [1] came out at 130 nM.

Compound `CC(C)[C@H](NC(=O)CCN(C)C)c1cccc(F)c1N1CCN(C(=O)[C@H]2CS(=O)(=O)C[C@@H]2c2ccc(Cl)cc2)CC1` displayed a Ki on Melanocortin receptor 4 [1] of 380 nM. `CC(C)[C@H](N)c1cccc(F)c1N1CCN(C(=O)[C@H]2CCO[C@@H]2c2ccc(Cl)cc2)CC1` registered a Ki at Melanocortin receptor 4 [1] of 1100 nM. `CC(C)C[C@H](N)c1cc(C(F)(F)F)ccc1N1CCN(C(=O)[C@H]2C[S+]([O-])C[C@@H]2c2ccc(Cl)cc2)CC1` (some centres not stated) displayed a Ki on Melanocortin receptor 4 [1] of 120 nM. Still for that read-out and setting: for `CC(C)C[C@H](N)c1cc(Cl)ccc1N1CCN(C(=O)[C@H]2CCO[C@@H]2c2ccc(Cl)cc2)CC1` the value was 280 nM.

`CC(C)C[C@H](NC(=O)CCN(C)C)c1cc(Cl)ccc1N1CCN(C(=O)[C@@H]2CCO[C@@H]2c2ccc(Cl)cc2)CC1` returned a Ki at Melanocortin receptor 4 [1] of 87 nM.

In the case of `CC(C)[C@H](NC(=O)CCN(C)C)c1cccc(F)c1N1CCN(C(=O)[C@@H]2CS(=O)(=O)C[C@H]2c2ccc(Cl)cc2)CC1`, on Melanocortin receptor 4 [1], the affinity corresponds to a Ki of 37 nM. Compound `CC(C)[C@H](N)c1cccc(F)c1N1CCN(C(=O)[C@@H]2CCO[C@@H]2c2ccc(Cl)cc2)CC1` returned a Ki at Melanocortin receptor 4 [1] of 2100 nM. At Melanocortin receptor 4 [1], `CC(C)C[C@H](N)c1cc(C(F)(F)F)ccc1N1CCN(C(=O)C2COCC2c2ccc(Cl)cc2)CC1` (some centres not stated) returned a Ki of 280 nM. On the same count and under the same terms, for `CC(C)C[C@H](NC(=O)[C@@H](C)N)c1cc(C(F)(F)F)ccc1N1CCN(C(=O)[C@H]2CS(=O)(=O)C[C@@H]2c2ccc(Cl)cc2)CC1` the value was 100 nM; for `CC(C)[C@H](N)c1cccc(F)c1N1CCN(C(=O)C2COCC2c2ccc(Cl)cc2)CC1` (some centres not stated), 790 nM; for `CC(C)[C@H](NC(=O)CCN(C)C)c1cccc(F)c1N1CCN(C(=O)[C@H]2COC[C@@H]2c2ccc(Cl)cc2)CC1`, 30 nM. As for `CC(C)C[C@H](NC(=O)CCN(C)C)c1cc(Cl)ccc1N1CCN(C(=O)[C@H]2CCO[C@@H]2c2ccc(Cl)cc2)CC1`, the affinity on Melanocortin receptor 4 [1], expressed as Ki, was 74 nM. Still for that read-out and setting: for `CC(C)[C@H](NC(=O)CCN(C)C)c1cccc(F)c1N1CCN(C(=O)[C@@H]2CCO[C@@H]2c2ccc(Cl)cc2)CC1` the value was 480 nM; for `CC(C)C[C@H](NC(=O)CCN(C)C)c1cc(C(F)(F)F)ccc1N1CCN(C(=O)C2COCC2c2ccc(Cl)cc2)CC1` (some centres not stated), 71 nM. At Melanocortin receptor 4 [1], `Cc1ccc(N2CCN(C(=O)[C@@H]3CCO[C@@H]3c3ccc(Cl)cc3)CC2)c([C@@H](N)C(C)C)c1` came in with a Ki of 590 nM. For the compound `Cc1ccc(N2CCN(C(=O)[C@H]3CCO[C@@H]3c3ccc(Cl)cc3)CC2)c([C@@H](N)C(C)C)c1`, the Ki at Melanocortin receptor 4 [1] worked out at 410 nM.

For `CC(C)C[C@H](NC(=O)CCN(C)C)c1cc(C(F)(F)F)ccc1N1CCN(C(=O)C2C(=O)OCC2c2ccc(Cl)cc2)CC1` (some centres not stated), the affinity on Melanocortin receptor 4 [1], expressed as Ki, was 290 nM.

The compound `CC(C)C[C@H](NC(=O)CCN(C)C)c1cc(C(F)(F)F)ccc1N1CCN(C(=O)[C@H]2CCO[C@@H]2c2ccc(Cl)cc2)CC1` displayed a Ki at Melanocortin receptor 4 [1] of 200 nM.

By Ki is commonly meant the equilibrium dissociation constant of an inhibitor or competing ligand from its target. Low values mean a stronger hold on the target, high ones a looser hold on the target. As a reminder, the IC50 is the concentration needed to halve the response being measured. What is called EC50 is the concentration needed to bring the measured effect to its halfway point. Lower therefore signals a more potent agent.
